From ChEMBL document CHEMBL1201862, “PubChem BioAssay data set” (2004)
Active and inactive are the calls of the source.

Assays:
[1] = molecular target: Rho-associated protein kinase 2 (Homo sapiens, UniProt O75116); type: functional
[2] = molecular target: Mitogen-activated protein kinase 13 (Homo sapiens, UniProt O15264); type: functional
[3] = HEK293T cytotoxicity, dose response, cytotoxicity control for miR-122 modulator project, cell-based, activator set, cherry-pick (AID 720690); type: functional;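 note: HEK293T human cells scored for general mammalian cytotoxicity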
[4] = molecular target: T1, High affinity choline transporter 1 (Homo sapiens, UniProt Q9GZV3); assay: CHT activators, dose response, cell-based, 10-point CRC, membrane potential dye (AID 602376); type: functional
T1 sequence (Q9GZV3 whole entry): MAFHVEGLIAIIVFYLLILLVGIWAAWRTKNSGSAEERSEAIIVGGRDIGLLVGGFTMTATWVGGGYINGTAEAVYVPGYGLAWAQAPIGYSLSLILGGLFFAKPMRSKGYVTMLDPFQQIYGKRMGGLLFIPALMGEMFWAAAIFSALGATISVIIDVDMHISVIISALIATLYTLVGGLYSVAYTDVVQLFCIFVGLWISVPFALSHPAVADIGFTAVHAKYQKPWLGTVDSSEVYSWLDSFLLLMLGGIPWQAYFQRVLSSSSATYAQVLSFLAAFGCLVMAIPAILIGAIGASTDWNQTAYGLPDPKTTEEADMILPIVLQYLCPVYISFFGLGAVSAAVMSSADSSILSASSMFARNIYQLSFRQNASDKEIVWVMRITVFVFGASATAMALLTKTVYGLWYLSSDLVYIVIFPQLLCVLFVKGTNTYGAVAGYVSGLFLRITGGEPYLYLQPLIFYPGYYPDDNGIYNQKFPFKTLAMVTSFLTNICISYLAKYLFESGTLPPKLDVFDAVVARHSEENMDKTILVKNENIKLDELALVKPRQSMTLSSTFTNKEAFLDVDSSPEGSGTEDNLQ

[5] = system: BJ; assay: cells; type: functional, cell-based; details: Homo sapiens
[6] = inhibitors of PGC1a acetylation in cells, dose response, cell-based, cherry-picked samples (AID 720514); type: functional;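 note: potency may reflect raised or lowered acetylation signal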
[7] = system: INS1; assay: beta cell apoptosis inhibitors, cytokine rescue, dose response, luminescence, retest (AID 449756); type: functional, cell-based; details: Rattus norvegicus;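 note: cell death triggered by IL-1 beta plus TNF-alpha plus IFN-gamma mixture; protective hits raise ATP signal compared with cytokine alone wells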
[8] = system: BJ; assay: cytotoxicity toward BJ-TERT-LT-ST fibroblasts, dose response, cell-based, RAS-independent, luminescence (AID 1935); type: functional; details: Homo sapiens;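 note: BJ fibroblasts immortalized with TERT plus LT and ST oncogenes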
[9] = Luminescence Cell-Based Dose Response HTS to Identify Inhibitors of 5'UTR Stem-Loop Driven Prion Protein mRNA Translation in H4 Neuroglioblastoma Cells. [Related pubchem assays: 1827 (Project Summary), 1813 (Primary HTS)]; type: functional
[10] = system: BJ; assay: cytotoxicity toward BJ-TERT fibroblasts, dose response, cell-based, RAS-independent, luminescence (AID 1933); type: functional; details: Homo sapiens
[11] = inhibitors of firefly luciferase expression or activity, dose response, H4 neuroglioma cells, luminescence (AID 1990); type: functional, cell-based
[12] = HEK293T cytotoxicity, dose response, cytotoxicity control for miR-122 modulator project, cell-based, inhibitor set, cherry-pick, set 2 (AID 720697); type: functional
[13] = cytotoxicity toward DRD oncogenic fibroblasts, dose response, cell-based, non-viral oncogenic, luminescence (AID 1934); type: functional; details: Homo sapiens
[14] = control 3'UTR Renilla luciferase suppression, dose response, counter-screen for Shn3 inhibitor project, cell-based, Clone20-Shn3RL, cherry-picked (AID 624133); type: functional
[15] = Luminescence-based dose response cell-based high throughput screening assay for cytotoxic compounds using the IEC-6 intestinal epithelial cell line. [Related pubchem assays: 1858 (Summary AID.), 1825 (Counterscreen.), 1907 (Confirmation screen.)]; type: functional
[16] = miR-122 activators in hepatoma reporter cells, dose response, cell-based, Huh7 psiCHECK-miR122, Renilla luciferase, cherry-picked (AID 651956); type: functional;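 note: huh7 hepatoma cells stably carrying a psiCHECK-2 miR-122 sensor plasmid; renilla luciferase signal reporting endogenous miR-122 activity after 48 h compound exposure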
[17] = inhibitors of SNCA 5'UTR-driven reporter translation, confirmation, H4 neuroglioma cells, luminescence (AID 1988); type: functional, cell-based
[18] = system: BJ; assay: cytotoxicity toward Ras-transformed BJeLR fibroblasts, dose response, cell-based, alamar blue fluorescence, cherrypicked samples (AID 2631); type: functional; details: Homo sapiens;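 note: confirmatory dose-response assay in RAS-dependent BJ fibroblasts engineered with TERT, LT and ST, with cytotoxicity read by fluorescence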
[19] = Shn3 3'UTR reporter inhibitors, dose response, cell-based, Clone20 osteoblasts, firefly luciferase, cherry-picked (AID 624132); type: functional;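 note: firefly luciferase luminescence from reporter carrying the Shn3 3'UTR in osteoblasts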
[20] = HepG2 cell cytotoxicity, dose response, cytotoxicity control for Shn3 inhibitor project, CellTiter-Glo, cherry-picked (AID 624134); type: functional, cell-based
[21] = molecular target: T2, Orexin/Hypocretin receptor type 1 (Homo sapiens, UniProt O43613); assay: Homogeneous Time Resolved Fluorescence (HTRF)-based cell-based high throughput dose response assay for antagonists of the orexin 1 receptor (OX1R; HCRTR1). [Related pubchem assays (depositor defined):AID434989, AID435008, AID463079, AID485270, AID492963, AID492964, AID492965, AID493232, AID504717, AID504718]; type: functional
T2 sequence (O43613 whole entry): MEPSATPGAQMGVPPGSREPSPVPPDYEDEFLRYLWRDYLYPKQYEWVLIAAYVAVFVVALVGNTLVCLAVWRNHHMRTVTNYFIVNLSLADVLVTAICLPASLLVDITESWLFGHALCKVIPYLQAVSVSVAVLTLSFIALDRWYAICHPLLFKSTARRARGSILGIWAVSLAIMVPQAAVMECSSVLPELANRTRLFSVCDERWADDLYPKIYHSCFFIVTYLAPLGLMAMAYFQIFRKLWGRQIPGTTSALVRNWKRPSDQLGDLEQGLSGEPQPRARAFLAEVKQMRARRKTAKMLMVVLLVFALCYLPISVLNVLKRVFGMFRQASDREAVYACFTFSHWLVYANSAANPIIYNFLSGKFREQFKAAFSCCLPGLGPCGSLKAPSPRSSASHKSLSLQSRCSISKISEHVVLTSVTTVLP

[22] = molecular target: T3, Orexin receptor type 2 (Homo sapiens, UniProt O43614); assay: Counterscreen assay for antagonists of the orexin 1 receptor (OX1R; HCRTR1): Homogeneous Time Resolved Fluorescence (HTRF)-based cell-based dose response assay for antagonists of the orexin 2 receptor (OX2R; HCRTR2), run by assay provider.; type: functional
T3 sequence (O43614 whole entry): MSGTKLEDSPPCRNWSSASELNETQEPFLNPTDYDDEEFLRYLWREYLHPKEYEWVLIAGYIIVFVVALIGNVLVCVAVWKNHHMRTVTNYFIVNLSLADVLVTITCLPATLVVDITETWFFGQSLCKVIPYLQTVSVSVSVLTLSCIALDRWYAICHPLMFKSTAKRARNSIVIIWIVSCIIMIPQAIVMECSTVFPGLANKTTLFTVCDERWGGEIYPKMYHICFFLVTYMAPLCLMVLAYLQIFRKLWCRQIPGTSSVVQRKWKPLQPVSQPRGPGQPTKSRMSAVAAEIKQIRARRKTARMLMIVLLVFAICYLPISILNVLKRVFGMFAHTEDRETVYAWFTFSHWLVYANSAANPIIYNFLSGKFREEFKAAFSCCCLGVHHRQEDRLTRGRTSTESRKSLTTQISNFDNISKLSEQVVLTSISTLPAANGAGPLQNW

[23] = molecular target: T3, Orexin receptor type 2; assay: Counterscreen assay for antagonists of the orexin 1 receptor (OX1R; HCRTR1): Fluorescence-based cell-based dose response assay for antagonists of the orexin 2 receptor (OX2R; HCRTR2), run by assay provider.; type: functional
[24] = system: CHO-K1; assay: (§1) Counterscreen for antagonists of the orexin 1 receptor (OX1R; HCRTR1): Homogeneous time resolved fluorescence (HTRF)-based cell-based dose response assay to identify antagonists of the parental CHO-K1 cell line. [Related pubchem assays (depositor defined):AID434989, AID435008, AID463079, AID485270, AID492963, AID492964, AID492965, AID493232, AID504699, AID504701]; type: functional; details: Cricetulus griseus
[25] = as §1, with “Fluorescence-based” for “Homogeneous time resolved fluorescence (HTRF)-based”, “cell-based high throughput” for “cell-based”, “CHO” for “CHO-K1”; type: functional
[26] = molecular target: T2, Orexin/Hypocretin receptor type 1; assay: Fluorescence-based cell-based high throughput dose response assay for antagonists of the orexin 1 receptor (OX1R; HCRTR1). [Related pubchem assays (depositor defined):AID434989, AID435008, AID463079, AID485270, AID492963, AID492964, AID492965, AID493232, AID504717, AID504718]; type: functional
[27] = Luminescence Cell-Based Dose Retest to Confirm Inhibitors of Cancer Stem Cells. [Related pubchem assays (depositor defined):AID2717, AID2721]; type: functional; details: Homo sapiens
[28] = molecular target: 72 kDa type IV collagenase (Homo sapiens, UniProt P08253); assay: Dose Response validation of uHTS RPN11 inhibitor hits using a MMP-2 Fluorescence assay.; type: functional
Chain of 72 kDa type IV collagenase (P08253 whole entry): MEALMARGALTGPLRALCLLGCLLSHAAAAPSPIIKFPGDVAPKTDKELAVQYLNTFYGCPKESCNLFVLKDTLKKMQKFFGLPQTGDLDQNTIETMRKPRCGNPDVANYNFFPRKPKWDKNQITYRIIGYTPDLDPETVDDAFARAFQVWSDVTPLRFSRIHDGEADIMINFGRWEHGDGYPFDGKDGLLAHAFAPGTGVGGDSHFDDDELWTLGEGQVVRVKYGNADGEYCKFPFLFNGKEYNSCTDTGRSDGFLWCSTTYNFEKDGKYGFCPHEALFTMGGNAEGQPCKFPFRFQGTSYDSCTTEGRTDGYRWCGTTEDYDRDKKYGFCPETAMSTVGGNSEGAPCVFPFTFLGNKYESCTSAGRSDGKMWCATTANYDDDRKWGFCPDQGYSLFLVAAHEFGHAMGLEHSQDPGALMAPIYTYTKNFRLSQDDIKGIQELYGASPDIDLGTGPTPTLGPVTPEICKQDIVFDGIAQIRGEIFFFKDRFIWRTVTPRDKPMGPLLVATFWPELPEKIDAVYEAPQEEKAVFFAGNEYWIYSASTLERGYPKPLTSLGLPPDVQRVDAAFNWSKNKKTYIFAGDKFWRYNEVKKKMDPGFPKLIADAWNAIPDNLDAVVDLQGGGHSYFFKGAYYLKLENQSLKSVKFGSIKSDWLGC

[29] = molecular target: Large T antigen (Simian virus 40, UniProt P03070); type: functional, Betapolyomavirus macacae;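 note: Confirmatory-stage PubChem screen for compounds that inhibit SV40 T antigen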
[30] = inhibition of K1F phage lysis, E. coli UTI89, bacterial capsule biogenesis inhibitors, alamar blue (AID 488966); type: functional
[31] = molecular target: Induced myeloid leukemia cell differentiation protein Mcl-1 (Homo sapiens, UniProt Q07820); type: functional
Chain of Induced myeloid leukemia cell differentiation protein Mcl-1 (Q07820 whole entry): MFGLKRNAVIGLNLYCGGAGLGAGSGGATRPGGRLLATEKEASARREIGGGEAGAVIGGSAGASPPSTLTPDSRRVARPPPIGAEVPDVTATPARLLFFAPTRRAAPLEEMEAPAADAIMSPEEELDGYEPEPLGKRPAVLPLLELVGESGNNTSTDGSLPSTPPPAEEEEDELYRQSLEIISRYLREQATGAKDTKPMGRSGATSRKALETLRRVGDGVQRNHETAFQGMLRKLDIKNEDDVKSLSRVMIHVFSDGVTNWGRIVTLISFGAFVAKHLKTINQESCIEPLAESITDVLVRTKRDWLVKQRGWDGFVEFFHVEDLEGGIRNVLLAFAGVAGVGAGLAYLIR

[32] = molecular target: Prothrombin (Bos taurus, UniProt P00735); assay: thrombin inhibition, dose response, biochemical, fluorescence polarization, uHTS hits (AID 602369); type: functional
[33] = molecular target: 26S proteasome non-ATPase regulatory subunit 14 (Homo sapiens, UniProt O00487); assay: inhibition of proteasome subunit RPN11 – biochemical, fluorescence polarization, uHTS hits, confirmation (AID 602368); type: functional
Chain of 26S proteasome non-ATPase regulatory subunit 14 (O00487 whole entry): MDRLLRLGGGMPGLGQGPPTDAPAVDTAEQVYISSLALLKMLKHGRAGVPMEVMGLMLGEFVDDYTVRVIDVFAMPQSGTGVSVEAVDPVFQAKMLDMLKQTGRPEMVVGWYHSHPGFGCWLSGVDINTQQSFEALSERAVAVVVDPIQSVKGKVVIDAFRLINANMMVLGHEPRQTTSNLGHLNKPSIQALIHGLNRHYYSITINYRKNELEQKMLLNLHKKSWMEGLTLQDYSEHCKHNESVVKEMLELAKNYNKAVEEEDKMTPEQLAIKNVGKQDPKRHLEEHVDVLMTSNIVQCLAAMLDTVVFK

[34] = molecular target: Genome polyprotein (Hepatitis C virus, UniProt Q2Q167); assay: HCV core protein dimerization inhibitors, dose response, biochemical, TR-FRET (AID 2159); design: species or system Hepacivirus hominis;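 note: blocks dimerization of HCV core protein measured by TR-FRET between tagged core106 pairs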
Chain of Genome polyprotein (Q2Q167 whole entry): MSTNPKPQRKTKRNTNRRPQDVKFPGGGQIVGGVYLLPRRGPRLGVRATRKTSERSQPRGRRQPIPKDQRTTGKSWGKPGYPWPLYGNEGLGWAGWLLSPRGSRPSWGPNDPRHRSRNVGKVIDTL

[35] = molecular target: Melanin-concentrating hormone receptor 1 (Homo sapiens, UniProt Q99705); assay: Late-stage fluorescence-based counterscreen for antagonists of the G-protein coupled receptor 7 (GPR7): cell-based dose response assay to identify antagonists of the melanin-concentrating hormone receptor 1 (MCHR1) Set 5.; type: functional
Chain of Melanin-concentrating hormone receptor 1 (Q99705 whole entry): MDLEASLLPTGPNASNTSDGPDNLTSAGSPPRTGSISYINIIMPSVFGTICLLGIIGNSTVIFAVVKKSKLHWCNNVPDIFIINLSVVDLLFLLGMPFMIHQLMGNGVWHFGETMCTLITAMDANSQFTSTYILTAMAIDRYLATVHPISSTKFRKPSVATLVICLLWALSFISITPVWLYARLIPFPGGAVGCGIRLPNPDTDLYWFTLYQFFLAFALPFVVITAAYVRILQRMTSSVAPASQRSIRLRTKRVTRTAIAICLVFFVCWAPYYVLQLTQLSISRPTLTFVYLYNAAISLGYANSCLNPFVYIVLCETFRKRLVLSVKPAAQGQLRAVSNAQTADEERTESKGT

[36] = molecular target: Neuropeptides B/W receptor type 1 (Homo sapiens, UniProt P48145); assay: GPR7 antagonist potency, late-stage follow-up, cell-based, fluorescence, dose response, set 5 (AID 588566); type: functional
Chain of Neuropeptides B/W receptor type 1 (P48145 whole entry): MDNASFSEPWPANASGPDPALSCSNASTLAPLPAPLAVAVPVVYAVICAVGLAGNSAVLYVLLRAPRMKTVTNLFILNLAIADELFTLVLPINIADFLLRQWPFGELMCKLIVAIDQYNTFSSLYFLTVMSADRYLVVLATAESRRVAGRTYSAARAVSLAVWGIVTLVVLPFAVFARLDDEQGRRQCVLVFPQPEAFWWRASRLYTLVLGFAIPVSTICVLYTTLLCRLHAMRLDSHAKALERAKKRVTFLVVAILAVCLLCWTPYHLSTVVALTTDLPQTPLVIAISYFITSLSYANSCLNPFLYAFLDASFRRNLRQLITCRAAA

Chain of Mitogen-activated protein kinase 13 (O15264 whole entry): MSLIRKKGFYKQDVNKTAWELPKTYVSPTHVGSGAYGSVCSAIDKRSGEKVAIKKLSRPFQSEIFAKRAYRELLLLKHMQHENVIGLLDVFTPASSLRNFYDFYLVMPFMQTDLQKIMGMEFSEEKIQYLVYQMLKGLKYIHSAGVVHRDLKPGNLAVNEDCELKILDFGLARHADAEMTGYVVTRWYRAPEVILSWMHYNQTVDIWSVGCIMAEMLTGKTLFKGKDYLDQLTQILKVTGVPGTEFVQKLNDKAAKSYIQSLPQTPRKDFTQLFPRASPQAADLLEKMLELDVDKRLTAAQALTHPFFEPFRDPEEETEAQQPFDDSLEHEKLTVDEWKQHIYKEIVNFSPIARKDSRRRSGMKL
Chain of Rho-associated protein kinase 2 (O75116 whole entry): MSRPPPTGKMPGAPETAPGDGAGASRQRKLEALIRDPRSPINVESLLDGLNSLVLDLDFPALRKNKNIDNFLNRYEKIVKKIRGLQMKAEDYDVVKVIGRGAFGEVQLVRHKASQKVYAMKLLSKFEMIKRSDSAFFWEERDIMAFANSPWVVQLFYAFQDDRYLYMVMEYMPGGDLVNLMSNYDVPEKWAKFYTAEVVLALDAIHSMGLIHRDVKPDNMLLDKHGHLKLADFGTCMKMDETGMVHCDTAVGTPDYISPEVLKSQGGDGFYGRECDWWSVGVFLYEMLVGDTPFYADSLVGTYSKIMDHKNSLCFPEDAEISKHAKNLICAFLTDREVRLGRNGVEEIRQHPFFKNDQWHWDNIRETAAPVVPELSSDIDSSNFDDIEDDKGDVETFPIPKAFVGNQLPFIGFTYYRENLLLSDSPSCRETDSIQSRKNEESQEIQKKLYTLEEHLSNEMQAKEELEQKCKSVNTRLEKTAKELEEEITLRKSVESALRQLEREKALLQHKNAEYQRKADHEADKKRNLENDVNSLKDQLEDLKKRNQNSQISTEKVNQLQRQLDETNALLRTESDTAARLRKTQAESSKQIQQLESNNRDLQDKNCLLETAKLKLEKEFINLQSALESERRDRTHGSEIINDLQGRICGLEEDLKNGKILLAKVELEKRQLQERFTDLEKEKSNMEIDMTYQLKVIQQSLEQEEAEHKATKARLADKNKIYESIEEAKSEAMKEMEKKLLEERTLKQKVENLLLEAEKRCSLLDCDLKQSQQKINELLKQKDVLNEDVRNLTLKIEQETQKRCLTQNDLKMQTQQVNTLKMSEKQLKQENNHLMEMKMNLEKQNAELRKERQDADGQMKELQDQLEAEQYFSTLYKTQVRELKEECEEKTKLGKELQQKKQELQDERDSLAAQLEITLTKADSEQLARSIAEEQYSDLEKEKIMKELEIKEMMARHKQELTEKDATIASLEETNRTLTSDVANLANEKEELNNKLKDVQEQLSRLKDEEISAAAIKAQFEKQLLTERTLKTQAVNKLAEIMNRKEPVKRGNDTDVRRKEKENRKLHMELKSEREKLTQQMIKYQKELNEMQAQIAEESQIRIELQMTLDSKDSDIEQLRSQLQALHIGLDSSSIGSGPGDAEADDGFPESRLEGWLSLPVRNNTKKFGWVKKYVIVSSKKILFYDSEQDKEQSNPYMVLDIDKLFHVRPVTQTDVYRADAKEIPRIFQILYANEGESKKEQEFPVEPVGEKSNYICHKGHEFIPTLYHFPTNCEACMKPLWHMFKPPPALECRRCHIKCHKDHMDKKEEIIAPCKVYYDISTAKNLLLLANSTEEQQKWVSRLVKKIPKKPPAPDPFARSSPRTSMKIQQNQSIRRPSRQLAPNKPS

O=C(NC(CO)Cc1ccccc1)c1ccc(-c2ccncc2)cc1 (stereo unspecified)
Ki [1]: 0.0398 µM (active) | Ki [2]: > 7.94 µM (inactive)

Cc1ccccc1OCC(O)CNC1CCC(NCC(O)COc2ccccc2C)CC1 (stereo unspecified)
AC50 [3]: 9.9 µM (active) | EC50 [4]: 19.3 µM (active) | EC50 [5]: 5.55 µM (active) | AC50 [6]: 6.68 µM (active) | AC50 [7]: 5.79 µM (active) | EC50 [8]: 2.8 µM (inconclusive) | EC50 [9]: 8.66 µM (active) | EC50 [10]: 2.62 µM (inconclusive) | EC50 [11]: > 120 µM (not active) | AC50 [12]: 6.41 µM (active) | EC50 [13]: 3.77 µM (active) | AC50 [14]: 11.8 µM (active) | IC50 [15]: 2.61 µM (active) | AC50 [16]: 10.4 µM (active) | EC50 [17]: 8.49 µM (active) | EC50 [18]: 0.582 µM (inconclusive) | AC50 [19]: 4.5 µM (active) | AC50 [20]: 1.89 µM (active)

C=CCn1c2ccccc2c(=O)c2cc(C#Cc3cc(OC)cc(OC)c3)ccc21
IC50 [21]: 1.19 µM (active) | IC50 [22]: > 50 µM (inactive) | IC50 [23]: 11 µM (inactive) | IC50 [24]: > 66.2 µM (inactive) | IC50 [25]: > 49.8 µM (inactive) | IC50 [26]: 7.69 µM (active) | AC50 [27]: 1.94 µM (active)

CS(=O)(=O)c1ccc2c(c1)SC1=NC(=O)/C(=C/c3ccco3)C(=N)N12
IC50 [28]: 21.2 µM (active) | IC50 [29]: > 100 µM (active) | IC50 [30]: > 150 µM (active) | IC50 [31]: 2.84 µM (active) | IC50 [32]: 21.6 µM (active) | IC50 [33]: 14.4 µM (active) | IC50 [34]: > 49.8 µM (not active)

O=c1c(Oc2ccc(C(F)(F)F)cc2)c(Cl)cnn1Cc1cccc2ccccc12
IC50 [35]: > 20 µM (inactive) | IC50 [36]: > 20 µM (inactive)
